{"source": "patent US20010041670A1", "about": "“Thrombospondin-binding region of histidine-rich glycoprotein and method of use” (priority 1999, published 2001)", "key": {"[1]": {"molecular_target": "T1, 125I-TSP-1 binding to HRGP (Homo sapiens, UniProt P07996)", "T1 construct": "TSP-1 was purified from human platelet releasate; from tissue; host or cells: TSP-1 from human platelet releasate; HRGP from human plasma", "T1 sequence (P07996 19-1170)": "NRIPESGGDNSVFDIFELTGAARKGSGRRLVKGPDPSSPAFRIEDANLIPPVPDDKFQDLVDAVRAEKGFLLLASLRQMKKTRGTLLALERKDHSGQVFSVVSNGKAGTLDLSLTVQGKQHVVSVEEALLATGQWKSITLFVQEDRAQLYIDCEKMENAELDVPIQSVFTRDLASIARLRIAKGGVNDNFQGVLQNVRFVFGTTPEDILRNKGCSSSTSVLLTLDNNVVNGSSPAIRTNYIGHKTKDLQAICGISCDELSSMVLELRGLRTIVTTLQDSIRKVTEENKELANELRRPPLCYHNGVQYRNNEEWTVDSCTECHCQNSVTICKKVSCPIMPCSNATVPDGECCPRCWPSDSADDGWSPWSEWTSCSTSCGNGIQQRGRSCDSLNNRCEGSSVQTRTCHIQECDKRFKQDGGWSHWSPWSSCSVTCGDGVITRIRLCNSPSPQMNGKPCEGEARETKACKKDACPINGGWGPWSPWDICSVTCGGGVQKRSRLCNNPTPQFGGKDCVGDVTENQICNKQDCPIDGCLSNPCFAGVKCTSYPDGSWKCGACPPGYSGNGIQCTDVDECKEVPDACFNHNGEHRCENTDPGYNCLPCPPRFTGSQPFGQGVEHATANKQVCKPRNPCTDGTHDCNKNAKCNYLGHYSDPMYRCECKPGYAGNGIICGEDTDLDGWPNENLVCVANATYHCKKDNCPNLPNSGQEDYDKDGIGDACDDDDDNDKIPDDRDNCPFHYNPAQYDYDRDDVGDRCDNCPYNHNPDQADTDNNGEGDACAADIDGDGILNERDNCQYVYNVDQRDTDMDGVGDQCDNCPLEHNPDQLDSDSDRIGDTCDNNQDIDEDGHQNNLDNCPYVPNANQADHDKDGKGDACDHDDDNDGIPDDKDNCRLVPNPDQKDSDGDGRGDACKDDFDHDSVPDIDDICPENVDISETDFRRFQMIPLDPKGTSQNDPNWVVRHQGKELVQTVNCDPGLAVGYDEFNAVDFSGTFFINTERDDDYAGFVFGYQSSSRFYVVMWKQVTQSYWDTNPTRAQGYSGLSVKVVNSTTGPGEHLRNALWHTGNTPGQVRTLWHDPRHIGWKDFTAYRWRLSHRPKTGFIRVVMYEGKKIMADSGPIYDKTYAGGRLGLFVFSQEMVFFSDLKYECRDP", "assay": "Solid phase binding assay, competition with CD36 fusion proteins", "details": "increasing concentrations of fusion protein", "protocol": "Solid phase binding assays were performed as described (18). Briefly, HRGP in carbonate buffer was immobilized on 96-well strips (Immulon-4 Remove-a-well, Dynatech Laboratories Inc., Burlington, Mass., USA) overnight at 4° C. After blocking with 1% BSA, ^125I-TSP-1 was incubated in the presence of varying concentrations of CD36-FP in triplicate, and bound radioactivity was quantified on a gamma counter. Non-specific binding was determined by carrying out binding in the presence of excess unlabeled ligand.\nTSP-1 binding to HRGP: competition with CD36."}, "binding of HRGP to TSP-1": {"molecular_target": "T2, binding of HRGP to TSP-1 (Homo sapiens, UniProt P04196)", "T2 construct": "from tissue; host or cells: HRGP from human plasma; TSP-1 from human platelet releasate", "T2 sequence (P04196 19-525)": "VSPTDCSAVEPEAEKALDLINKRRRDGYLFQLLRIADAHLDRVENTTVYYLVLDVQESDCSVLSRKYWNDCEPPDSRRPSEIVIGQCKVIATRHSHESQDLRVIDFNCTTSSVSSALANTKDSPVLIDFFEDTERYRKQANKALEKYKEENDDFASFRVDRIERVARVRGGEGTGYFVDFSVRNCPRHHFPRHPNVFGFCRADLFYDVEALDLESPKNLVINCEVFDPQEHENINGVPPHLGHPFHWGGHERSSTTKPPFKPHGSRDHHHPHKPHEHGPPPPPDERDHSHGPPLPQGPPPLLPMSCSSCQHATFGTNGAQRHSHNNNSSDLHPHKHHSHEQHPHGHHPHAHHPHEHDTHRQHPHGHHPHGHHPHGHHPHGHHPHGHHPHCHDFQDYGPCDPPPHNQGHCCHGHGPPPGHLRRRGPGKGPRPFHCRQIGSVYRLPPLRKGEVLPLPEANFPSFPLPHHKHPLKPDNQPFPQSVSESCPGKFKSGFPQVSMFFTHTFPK", "assay": "ELISA of HRGP binding to immobilized TSP-1 in presence of peptides", "details": "for inhibition of binding of HRGP to immobilized TSP-1: peptide 50 μM", "protocol": "(§1) Enzyme-linked immunosorbent assays (ELISA) were performed as described (6). Briefly, TSP-1 (4μg/ml) in coating buffer (0.5M sodium carbonate, pH 9.6) was applied to microtiter plates (Becton Dickinson, Lincoln Park, N.J., USA) for 3 hours at 37° C. After washing with wash buffer (0.05% Tween in 20 mM Tris, 150mM NaCl, pH 7.5), and blocking for 1 hour at 37° C. with 1% BSA in Tris-Tween, HRGP in varying amounts in the presence and absence of peptide was added for 18h at 4° C. After washing, alkaline phosphatase-conjugated anti-HRGP or nonimmune rabbit Fab'2 was added for 3h at 37° C., after which p-nitrophenyl phosphate substrate was added and optical density (OD) at 405 nm was read in a microplate reader (Molecular Devices, Menlo Park, Calif., USA).\n(§2) HRGP or plasminogen binding to TSP-1 immobilized on plastic wells was measured by enzyme-linked immunosorbent assay (ELISA) as described above, using an alkaline phosphatase-conjugated anti-HRGP antibody and p-nitrophenyl phosphate substrate.\n(§3) As an additional control, the binding of plasminogen to TSP-1 was measured.\nVarying amounts of HRGP were added alone or in the presence of increasing concentrations of the peptide CSVTCG to TSP-1 coated wells. Binding was measured by ELISA as described above."}, "[2]": {"test_system": "Human dermal microvascular EC (HMVEC)", "assay": "Tube formation assay on Matrigel", "format": "cell-based", "details": "Matrigel", "protocol": "Tube Formation Assay. Early passage (P2 or P3) HMVEC in 0.2% MVGS were grown on 150 μl of Matrigel (Becton Dickinson, Bedford, Mass., USA) at 3×10^4 cells per well of 48-well plates. Reagents were added and cells were incubated at 5% CO2, 37° C. for 24 hours then photographed. Images were scanned and number of branched structures was counted using Scion Image software (Frederick, Md., USA).\nHRGP inhibits the anti-angiogenic effect of TSP-1 in vitro. Microvascular EC were grown on Matrigel under low serum concentrations (0.2%) in the presence of bFGF (2 ng/ml), conditions which are known to induce tube formation. […] The anti-angiogenic activity of TSP-1 was abolished by the addition of HRGP (15 nM), which restored the ability of the EC to form tubular structures. (c)."}, "[3]": {"test_system": "Human dermal microvascular EC (HMVEC)", "assay": "Endothelial cell chemotaxis assay (modified Boyden chamber)", "format": "cell-based", "details": "TSP-1 2 nM; 3 separate experiments", "protocol": "Endothelial Cell (EC) chemotaxis assays were performed as described using a modified Boyden chamber with 8 μm gelatin-coated membranes (22). Briefly, confluent flasks of HMVEC were grown in 0.1% MVGS overnight and plated at 3×10^4 cells per well on a gelatinized porous membrane (Osmonics, Minnetonka, Minn., USA). Reagents were added to wells and cells were allowed to migrate at 5% CO2, 37° C. for 4 hours. Membranes were stained and the number of cells migrating was counted. Results were expressed as the percentage of maximum cells migrating towards bFGF (38-113 cells/10 high power fields) minus the number of cells migrating in the absence of bFGF (4-13cells/10 hpf).\nHRGP inhibits the anti-chemotactic effect of TSP-1. Because the type I repeat also mediates the interaction of TSP-1 with HRGP, we studied the effect of HRGP on angiogenesis. EC migration towards bFGF was measured using a modified Boyden chamber with an 8 μm gelatin-coated membrane in the presence and absence of TSP-1 (2 nM) and increasing concentrations of HRGP (0-100 nM). Data from 3 separate experiments are expressed as a percentage of migration in the presence of bFGF alone. We measured migration of CD36-expressing microvascular EC towards bFGF. The addition of TSP-1 inhibited bFGF-induced migration of EC (approx. 30%±3% of control 100% value without added TSP-1). […]"}, "C57B1/6 mice": {"test_system": "C57B1/6 mice", "assay": "In vivo subcutaneous Matrigel plug assay", "protocol": "In vivo subcutaneous Matrigel plug assays were performed as described (23). Briefly, 500 μl of Matrigel mixed with proteins or growth factors was injected subcutaneously near the abdominal midline of C57B1/6 mice. Gels were removed after 10 days, fixed in 1% paraformaldehyde, embedded in paraffin, sectioned, and stained with hematoxylin and eosin. Immunohistochemistry was performed on unstained sections using an anti-human von Willebrand factor (vWF) IgG (Dako, Glostrup, Denmark) or isotype-matched control (Sigma) and a biotin-streptavidin-peroxidase antibody and development system (Vector Laboratories, Burlingame, Calif.) as described (24) and counterstained with Mayer's hematoxylin (ImmunoGenex, San Ramon, Calif., USA). After scanning, the degree of angiogenesis was determined by counts of vWF-positive blood vessels using Scion Image. For breast tissue, frozen sections of freshly obtained human breast carcinoma were incubated with rabbit antibody to HRGP or CSVTCG or murine monoclonal antibody to TSP, or isotype-matched controls (Sigma), and developed as above. These studies were approved by the Institutional Animal Use Committee.\nMatrigel mixed was injected subcutaneously into the midline of mice and resulting plugs were harvested after 10 days, fixed, and paraffin embedded, sectioned, stained with. hematoxylin and eosin, and photographed at 200× magnification. […]"}, "CD36 null mice": {"test_system": "CD36 null mice", "assay": "In vivo corneal angiogenesis assay, CD36 null mice", "protocol": "(§4) FIG. 3. HRGP abrogates the effect of endogenous TSP in the corneal angiogenesis assay. Pellets containing bFGF at various doses with and without HRGP (50 ng) were implanted into the corneas of wild type C57BL/6 (closed symbols) or CD 36 null mice (open symbols), and area of neovascularization was measured after five days. HRGP (--●--) augmented the dose-dependent effect of bFGF (—▪—) in the wild type mice (p=0.0004 by ANOVA). In CD36 null mice, there was an enhanced dose response to bFGF (—□—) (p=0.01), but no effect seen with the addition of HRGP (--◯--). Results represent mean±SE of>6 replicates.\n(§5) In vivo corneal angiogenesis assays. Pellets composed of hydron (Hydro Med Sciences, Cranbury, N.J.) and sucralfate (Teva Pharmaceuticals, North Wales, Pa.) were mixed with proteins or growth factors, and were prepared and implanted into the comeas of C57B1/6 mice as described (38). After 5 days, eyes were viewed under a dissecting microscope and photographed with a Sony DKC-1000 digital camera. The area of neovascularization was calculated by measuring vessel length from limbus towards the pellet and number of clock hours of vascularization as described (39, 40). Studies were approved by the Institutional Animal Use Committee.\nIn fact, the dose response curve of bFGF in wild type mice in the presence of HRGP was similar to that seen with bFGF alone in the CD36 null mice. […]"}, "wild type C57BL/6 mice": {"test_system": "wild type C57BL/6 mice", "assay": "In vivo corneal angiogenesis assay, wild type mice", "protocol": "as §4, §5\nIn a second type of in vivo experiment, hydron/sucralfate pellets containing bFGF, TSP-1, and/or HRGP were implanted in the corneas of C57B1/6 mice. […]"}, "[4]": {"molecular_target": "binding of plasminogen to TSP-1 (Homo sapiens, UniProt P00747)", "sequence (P00747 20-810 limits assumed)": "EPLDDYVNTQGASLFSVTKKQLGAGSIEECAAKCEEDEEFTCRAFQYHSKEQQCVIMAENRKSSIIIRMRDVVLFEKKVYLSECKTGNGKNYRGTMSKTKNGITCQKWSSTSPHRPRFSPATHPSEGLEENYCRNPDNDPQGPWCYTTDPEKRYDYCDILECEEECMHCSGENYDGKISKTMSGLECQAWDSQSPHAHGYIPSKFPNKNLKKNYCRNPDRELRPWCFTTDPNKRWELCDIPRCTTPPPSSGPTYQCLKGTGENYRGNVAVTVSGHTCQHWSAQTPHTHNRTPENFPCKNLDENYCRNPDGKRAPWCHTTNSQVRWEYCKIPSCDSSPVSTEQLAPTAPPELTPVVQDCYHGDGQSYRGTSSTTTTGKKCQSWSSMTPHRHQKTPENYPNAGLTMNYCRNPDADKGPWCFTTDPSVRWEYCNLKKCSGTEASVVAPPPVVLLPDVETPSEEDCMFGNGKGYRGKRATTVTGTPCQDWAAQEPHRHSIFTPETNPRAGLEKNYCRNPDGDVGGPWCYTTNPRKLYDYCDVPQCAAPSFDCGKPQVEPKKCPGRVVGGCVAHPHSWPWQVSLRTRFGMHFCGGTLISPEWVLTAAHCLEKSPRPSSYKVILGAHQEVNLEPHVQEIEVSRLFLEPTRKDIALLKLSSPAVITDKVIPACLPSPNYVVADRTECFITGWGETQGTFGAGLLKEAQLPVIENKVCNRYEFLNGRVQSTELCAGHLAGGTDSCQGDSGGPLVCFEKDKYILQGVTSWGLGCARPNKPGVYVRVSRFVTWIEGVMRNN", "details": "ELISA; control interaction", "protocol": "as §1, §2, §3"}, "[5]": {"molecular_target": "T3, binding of radiolabelled HRGP to TSP-1 (Homo sapiens, UniProt P04196)", "T3 construct": "TSP-1 was purified from human platelet releasate; from tissue; host or cells: HRGP from human plasma; TSP-1 from human platelet releasate", "T3 sequence (P04196 19-525)": "T2 sequence (P04196 19-525)", "assay": "Ligand blot of radiolabelled HRGP on TSP-1", "details": "autoradiography; CSVTCG peptide at 50 μM", "procedure": "Ligand Blot: TSP-1 was resolved on an SDS-polyacrylamide gel and electrophoretically blotted onto a polyvinylidene difluoride (PVDF) membrane. The membrane was blocked with 150 mM NaCl, 20 mM Tris (TBS) containing 5% BSA. Following three washes with TBS, washes the membranes were cut into strips and incubated with ligand(s) diluted in TBS, 0.1% BSA for 1 hour, washed, and developed by autoradiography.\nLigand blots show binding of radiolabelled HRGP to TSP-1 that had been subjected to SDS-PAGE and transferred to nitrocellulose, then developed by autoradiography."}}, "data": [{"substance": "CD36 FP93-120: CD36-glutathione-S-transferase (GST) fusion protein shown to bind TSP-1 (YRVRFLAKENVTQDAEDNTVSFLQPNGA; left off: a dimerising Fc or GST)", "values": [{"measurement": "inhibition of 125I-TSP-1 binding to immobilized HRGP", "setting": "[1]", "result": "inhibited"}]}, {"substance": "GST: glutathione-S-transferase alone, control", "values": [{"measurement": "inhibition of 125I-TSP-1 binding to immobilized HRGP", "setting": "[1]", "result": "had no effect"}]}, {"substance": "RGDS: control TSP-1 peptide", "values": [{"measurement": "inhibition of binding of HRGP to immobilized TSP-1", "setting": "binding of HRGP to TSP-1", "result": "not and had no effect"}]}, {"substance": "TSP-1: 450 kDa homotrimeric adhesive glycoprotein purified from human platelet releasate; inhibitor of angiogenesis", "values": [{"measurement": "effect on bFGF-induced tube formation by EC", "setting": "[2]; TSP-1 2 nM, bFGF 2 ng/ml, 0.2% serum", "result": "inhibited"}, {"measurement": "EC migration towards bFGF, percentage of control without added TSP-1", "setting": "[3]", "result": "approx. 30%±3%"}, {"measurement": "blood vessels/mm^2, % of that seen with bFGF", "setting": "C57B1/6 mice; TSP-1 added to bFGF in Matrigel, 10 days", "result": "14±8", "unit": "%"}, {"measurement": "inhibition of bFGF-induced angiogenesis", "setting": "CD36 null mice; CD36 null mice", "result": "did not inhibit"}]}, {"substance": "TVSGCC: scrambled peptide control", "values": [{"measurement": "inhibition of binding of HRGP to immobilized TSP-1", "setting": "binding of HRGP to TSP-1", "result": "not and had no effect"}]}, {"substance": "bFGF: Recombinant human basic fibroblast growth factor", "values": [{"measurement": "induction of tube formation", "setting": "[2]; agent alone, low serum", "result": "induced tube formation"}, {"measurement": "angiogenesis in Matrigel plug (histology)", "setting": "C57B1/6 mice; plugs harvested after 10 days, representative images of 4 experiments", "result": "stimulated angiogenesis"}, {"measurement": "Area of Neovascularization (mm^2) ± SE", "setting": "wild type C57BL/6 mice; Wild type mouse, corneal pellet, 5 days", "result": "2.35 ± 0.10", "unit": "mm^2"}, {"measurement": "eyes with vigorous outgrowth of blood vessels (angiogenesis)", "setting": "wild type C57BL/6 mice; pellets: bFGF 50 ng, TSP-1 200 ng, HRGP 100 ng, after 5 days", "result": "13/13"}, {"measurement": "Area of Neovascularization (mm^2) ± SE", "setting": "CD36 null mice; CD36 −/− mouse, corneal pellet, 5 days", "result": "2.10 ± 0.14", "unit": "mm^2"}]}, {"substance": "cysteine-serine-valine-threonine-cysteine-glycine [CSVTCG]", "values": [{"measurement": "peptide concentration at which inhibition of HRGP binding to TSP-1 reached maximum", "setting": "binding of HRGP to TSP-1; concentration-dependent inhibition", "result": 50, "unit": "µM"}, {"measurement": "inhibition of binding of HRGP to immobilized TSP-1", "setting": "binding of HRGP to TSP-1", "result": "inhibited"}, {"measurement": "inhibition of binding of plasminogen to TSP-1", "setting": "[4]", "result": "not inhibited"}, {"measurement": "binding of radiolabelled HRGP to TSP-1 resolved on SDS-PAGE and blotted", "setting": "[5]", "result": "completely abolished"}]}]}
